System: Healthy subjects, ages 13-18
Assay: Children's Depression Rating Scale (CDRS)
Assay type: in vivo, human
Conditions: for CDRS Score, Mean: V3-V1
Text: Study participants were screened by telephone prior to study enrollment. Healthy subjects, ages 13-18, with no significant medical conditions and no history of co-morbid psychiatric disorder, current Axis I or II diagnosis, or previous participation in a pharmacotherapeutic trial, were selected. Use of any psychotropic medication or any previous head injury resulting in loss of consciousness for 5 or more minutes were used as exclusion criteria. While no participant met criteria for a neuropsychiatric disorder at enrollment, clinical assessments were still completed throughout the study to evaluate changes in mood state. In addition, self-reports of sleep habits, lifestyle, and exercise routines were also administered at baseline as well as at each study visit to assess changes in health habits during study participation. Following the completion of Visit 1 assessment, participants were given their 28-day supply of citicoline (250 mg or 500 mg) or placebo, which was randomly assigned. They were instructed to take one capsule a day every day for the next 28 days. Visit 2 occurred fourteen days after Visit 1. At Visit 2, the remaining study pills were counted and participant dosage calendars were checked to ensure compliance with the protocol. Additional neuropsychological measures and clinical assessments were administered during this visit. Participants returned for Visit 3 fourteen days later, on the 28th day of their study participation. The pill bottle and the dosage calendar were collected from each participant. Urine and blood were again obtained. Participants also participated in similar clinical and neuropsychological testing and clinical measures that were given during visit 1. The CDRS is an investigator-administered scale that are widely used as observational measures of depressive symptoms in children. The scale was administered at each of the three visits to assess presence or absence of depressive symptoms.

SMILES: C[N+](C)(C)CCOP(=O)(O)OP(=O)([O-])OC[C@H]1O[C@@H](n2ccc(N)nc2=O)[C@H](O)[C@@H]1O [citicoline, Cytidine 5′-diphosphocholine]
- CDRS, Mean (250 mg/day, V1 (baseline)): 16.89
- CDRS, Mean (250 mg/day, V3 (day 28)): 16.22
- CDRS Score, Mean (250 mg/day): -0.67
- CDRS, Mean (500 mg/day, V1 (baseline)): 16.33
- CDRS, Mean (500 mg/day, V3 (day 28)): 16.08
- CDRS Score, Mean (500 mg/day): -0.25

— US20230181614A1, “ADMINISTRATION OF CITICOLINE TO IMPROVE COGNITIVE PERFORMANCE, ATTENTIONAL PERFORMANCE, AND MOTOR FUNCTION” (KYOWA HAKKO BIO CO., LTD., priority 2014, published 2023)
